Results reported in article PMC5591855, “d-Tubocurarine and Berbamine: Alkaloids That Are Permeant Blockers of the Hair Cell's Mechano-Electrical Transducer Channel and Protect from Aminoglycoside Toxicity” (Frontiers in Cellular Neuroscience, 2017).
pIC50: −log10 of the molar value.

Tested on: T1, mechano-electrical transducer (MET) channel
T1 construct: native channel in CD-1 mouse cochlear outer hair cells (organotypic cultures)
Assay: whole-cell patch clamp of MET currents, extracellular block at -104 mV, […] Ca2+
Type: cell-based, Mus musculus
Settings: read-out: Kd

With COc1cc2c3cc1Oc1cc(ccc1O)C[C@@H]1c4c(cc(OC)c(O)c4Oc4ccc(cc4)C[C@@H]3N(C)CC2)CC[N+]1(C)C [dTC, d-Tubocurarine] as the compound, how does the pIC50 read?
The pIC50 was 5.66.

With berbamine as the compound, how does the pIC50 read?
The pIC50 was 5.55.
